# Experimental data reported in patent US20050281891A1, “Testosterone stimulant” (Ecobio, Inc., priority 2004, published 2005).
# System: systemic testosterone levels
# Test: Testosterone stimulation in rats: iron, chitosan and iron chitosan chelate vs placebo
# Format: in vivo, Sprague Dawley rats
# Details: 8-week old rats, oral 200 μL twice a day for 7 days; 0.12 wt % iron lactate, 1 wt % chitosan or 1 wt % iron chitosan chelate
# Experimental: The effects of an iron chitosan chelate, chitosan, and iron on systemic testosterone levels in test groups of 8-week old Sprague Dawley rats is observed and compared to a control group. Each of the groups includes 8 rats. The rats of each group are orally administered a liquid composition twice a day, where group 1 receives a carrier composition in the form of a placebo, group 2 receives the carrier enhanced with 200 μL of 0.12 wt % iron lactate, group 3 receives the carrier enhanced with 200 μL of 1 wt % chitosan having a weight average molecular weight of 19,500 Mw, and group 4 receives the carrier enhanced with 200 μL of 1 wt % iron chitosan chelate (chitosan weight average molecular weight 19,500 Mw). The effects of the iron, chitosan, and iron chitosan chelate in systemic testosterone levels are compared to the systemic testosterone levels of the rats administered with the carrier placebo alone. After 7 days of dosing the 4 rat groups twice per day, the impact of the test groups compared to the control group on the rats testosterone levels is recorded, and is set forth in Table 1.
compound,measurement,value
"CC(O)C(=O)[O-].CC(O)C(=O)[O-].[Fe+2] (centres unmarked) [Iron, iron lactate]",% Increase from Placebo,˜0%
same,Testosterone Level,358.1 ± 23.6 (pg/100 μL)
